# Experimental data: patent US9023789B2, “Amylin analogs and pharmaceutical compositions thereof” (Novo Nordisk A/S, priority 2012, dated 2015)
# Numbered stars: 1 amine (or outer) side, 2 acyl side, 3 side chain; on linkers, the order of the positions; unused ones are H or OH. Bridge positions count the residues as written; N and C are the ends. Side chains are listed from the residue outwards. Peptide text beside a SMILES is read from it. * marks the point of attachment. C20 diacid = O=C(O)CCCCCCCCCCCCCCCCCCC(=O)*; γGlu = O=C(O)[C@H](CCC(=O)[*:2])N[*:1]; AEEA = NCCOCCOCC(=O)O
# Test: ASSAY (III) ThT fibrillation assay for physical stability
# Format: physicochemical
# Method in brief: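 Physical stability scored by ThT fluorescence (444 nm excitation, 485 nm emission) tracked every 20 min during 37 °C incubation with 960 rpm shaking, ThT at 1 μM final. Values are replicate means with SD at chosen times; HPLC against pramlintide standard gives initial and post-assay soluble concentrations.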
row,Compound,ThT pH 4.0 lag time (h)
1,CC[C@H](C)[C@H](NC(=O)[C@H](C)NC(=O)CNC(=O)[C@H](Cc1ccccc1)NC(=O)[C@H](CC(N)=O)NC(=O)[C@@H]1CCCN1C(=O)[C@H](CO)NC(=O)[C@H](CO)NC(=O)[C@H](Cc1c[nH]cn1)NC(=O)[C@H](CCCNC(=N)N)NC(=O)[C@H](CC(C)C)NC(=O)[C@H](Cc1ccccc1)NC(=O)[C@H](CC(N)=O)NC(=O)[C@H](C)NC(=O)[C@H](CC(C)C)NC(=O)[C@H](CCCNC(=N)N)NC(=O)[C@H](CCC(N)=O)NC(=O)[C@@H](NC(=O)[C@H](C)NC(=O)[C@@H]1CSSC[C@H](NC(=O)[C@@H](N)CCCCNC(=O)COCCOCCNC(=O)CC[C@H](NC(=O)CCCCCCCCCCCCCCCCCCC(=O)O)C(=O)O)C(=O)N[C@@H](CC(N)=O)C(=O)N[C@@H]([C@@H](C)O)C(=O)N[C@@H](C)C(=O)N[C@@H]([C@@H](C)O)C(=O)N1)[C@@H](C)O)C(=O)N1CCC[C@H]1C(=O)N1CCC[C@H]1C(=O)N[C@@H](CO)C(=O)N[C@H](C(=O)N1CCC[C@H]1C(=O)N[C@H](C(=O)NCC(=O)N[C@@H](CO)C(=O)N[C@@H](CC(N)=O)C(=O)N[C@H](C(=O)N[C@@H](Cc1ccc(O)cc1)C(N)=O)[C@@H](C)O)C(C)C)[C@@H](C)O [Example 53] (H-K([AEEA-γGlu-C20 diacid])CNTATCATQRLANFLRHSSPNFGAIPPSTPVGSNTY-NH2; disulfide 2-7; N-terminus assumed),18
2,CC[C@H](C)[C@H](NC(=O)[C@H](C)NC(=O)CNC(=O)[C@H](Cc1ccccc1)NC(=O)[C@H](CC(N)=O)NC(=O)[C@@H]1CCCN1C(=O)[C@H](CO)NC(=O)[C@H](CO)NC(=O)[C@H](Cc1c[nH]cn1)NC(=O)[C@H](CCCNC(=N)N)NC(=O)[C@H](CC(C)C)NC(=O)[C@H](Cc1ccccc1)NC(=O)[C@H](CCC(=O)O)NC(=O)[C@H](C)NC(=O)[C@H](CC(C)C)NC(=O)[C@H](CCCNC(=N)N)NC(=O)[C@H](CCC(N)=O)NC(=O)[C@@H](NC(=O)[C@H](C)NC(=O)[C@@H]1CSSC[C@H](NC(=O)[C@H](CCCCN)NC(=O)CC[C@H](NC(=O)CCCCCCCCCCCCCCCCCCC(=O)O)C(=O)O)C(=O)N[C@@H](CC(N)=O)C(=O)N[C@@H]([C@@H](C)O)C(=O)N[C@@H](C)C(=O)N[C@@H]([C@@H](C)O)C(=O)N1)[C@@H](C)O)C(=O)N1CCC[C@H]1C(=O)N[C@@H](CO)C(=O)N[C@@H](CO)C(=O)N[C@H](C(=O)N1CCC[C@H]1C(=O)N[C@H](C(=O)NCC(=O)N[C@@H](CO)C(=O)N[C@@H](CC(N)=O)C(=O)N[C@H](C(=O)N[C@@H](Cc1ccc(O)cc1)C(N)=O)[C@@H](C)O)C(C)C)[C@@H](C)O [Example 31] ({C20 diacid-γGlu}-KCNTATCATQRLAEFLRHSSPNFGAIPSSTPVGSNTY-NH2; disulfide 2-7 (inferred)),45
3,CC[C@H](C)[C@H](NC(=O)[C@H](C)NC(=O)CNC(=O)[C@H](Cc1ccccc1)NC(=O)[C@H](CC(N)=O)NC(=O)[C@@H]1CCCN1C(=O)[C@H](CO)NC(=O)[C@H](CO)NC(=O)[C@H](Cc1c[nH]cn1)NC(=O)[C@H](CCCNC(=N)N)NC(=O)[C@H](CC(C)C)NC(=O)[C@H](Cc1ccccc1)NC(=O)[C@H](CC(N)=O)NC(=O)[C@H](C)NC(=O)[C@H](CC(C)C)NC(=O)[C@H](CCCNC(=N)N)NC(=O)[C@H](CCC(N)=O)NC(=O)[C@@H](NC(=O)[C@H](C)NC(=O)[C@@H]1CSSC[C@H](NC(=O)[C@@H](N)CCCCNC(=O)COCCOCCNC(=O)CC[C@H](NC(=O)CCCCCCCCCCCCCCCCCCC(=O)O)C(=O)O)C(=O)N[C@@H](CC(N)=O)C(=O)N[C@@H]([C@@H](C)O)C(=O)N[C@@H](C)C(=O)N[C@@H]([C@@H](C)O)C(=O)N1)[C@@H](C)O)C(=O)N1CCC[C@H]1C(=O)N[C@@H](CO)C(=O)N[C@@H](CO)C(=O)N[C@H](C(=O)N1CCC[C@H]1C(=O)N[C@H](C(=O)NCC(=O)N[C@@H](CO)C(=O)N[C@@H](CC(N)=O)C(=O)N[C@H](C(=O)N[C@@H](Cc1ccc(O)cc1)C(N)=O)[C@@H](C)O)C(C)C)[C@@H](C)O [Example 49],8
4,CC[C@H](C)[C@H](NC(=O)[C@H](C)NC(=O)CNC(=O)[C@H](Cc1ccccc1)NC(=O)[C@H](CC(N)=O)NC(=O)[C@@H]1CCCN1C(=O)[C@H](CO)NC(=O)[C@H](CO)NC(=O)[C@H](Cc1c[nH]cn1)NC(=O)[C@H](CCCNC(=N)N)NC(=O)[C@H](CC(C)C)NC(=O)[C@H](Cc1ccccc1)NC(=O)[C@H](CCC(=O)O)NC(=O)[C@H](C)NC(=O)[C@H](CC(C)C)NC(=O)[C@H](CCCNC(=N)N)NC(=O)[C@H](CCC(N)=O)NC(=O)[C@@H](NC(=O)[C@H](C)NC(=O)[C@@H]1CSSC[C@H](NC(=O)[C@H](CCCCN)NC(=O)CC[C@H](NC(=O)CCCCCCCCCCCCCCCCCCC(=O)O)C(=O)O)C(=O)N[C@@H](CC(N)=O)C(=O)N[C@@H]([C@@H](C)O)C(=O)N[C@@H](C)C(=O)N[C@@H]([C@@H](C)O)C(=O)N1)[C@@H](C)O)C(=O)N1CCC[C@H]1C(=O)N[C@@H](CO)C(=O)N[C@@H](CO)C(=O)N[C@H](C(=O)N[C@@H](CC(N)=O)C(=O)N[C@H](C(=O)NCC(=O)N[C@@H](CCCCN)C(=O)N[C@@H](CC(N)=O)C(=O)N[C@H](C(=O)N[C@@H](Cc1ccc(O)cc1)C(N)=O)[C@@H](C)O)C(C)C)[C@@H](C)O [Example 36] ({C20 diacid-γGlu}-KCNTATCATQRLAEFLRHSSPNFGAIPSSTNVGKNTY-NH2; disulfide 2-7 (inferred)),45
5,CC[C@H](C)[C@H](NC(=O)[C@H](C)NC(=O)CNC(=O)[C@H](Cc1ccccc1)NC(=O)[C@H](CC(N)=O)NC(=O)[C@@H]1CCCN1C(=O)[C@H](CO)NC(=O)[C@H](CO)NC(=O)[C@H](Cc1c[nH]cn1)NC(=O)[C@H](CCCNC(=N)N)NC(=O)[C@H](CC(C)C)NC(=O)[C@H](Cc1ccccc1)NC(=O)[C@H](Cc1c[nH]cn1)NC(=O)[C@H](C)NC(=O)[C@H](CC(C)C)NC(=O)[C@H](CCCNC(=N)N)NC(=O)[C@H](CCC(N)=O)NC(=O)[C@@H](NC(=O)[C@H](C)NC(=O)[C@@H]1CSSC[C@H](NC(=O)[C@H](CCCNC(=N)N)NC(=O)CNC(=O)CC[C@H](NC(=O)CCCCCCCCCCCCCCCCCCC(=O)O)C(=O)O)C(=O)N[C@@H](CC(N)=O)C(=O)N[C@@H]([C@@H](C)O)C(=O)N[C@@H](C)C(=O)N[C@@H]([C@@H](C)O)C(=O)N1)[C@@H](C)O)C(=O)N1CCC[C@H]1C(=O)N[C@@H](CO)C(=O)N[C@@H](CO)C(=O)N[C@H](C(=O)N[C@@H](CC(N)=O)C(=O)N[C@H](C(=O)NCC(=O)N[C@@H](CO)C(=O)N[C@@H](CC(N)=O)C(=O)N[C@H](C(=O)N[C@@H](Cc1ccc(O)cc1)C(N)=O)[C@@H](C)O)C(C)C)[C@@H](C)O [Example 99] ({C20 diacid-γGlu}-GRCNTATCATQRLAHFLRHSSPNFGAIPSSTNVGSNTY-NH2; disulfide 3-8),17
6,CC[C@H](C)[C@H](NC(=O)[C@H](C)NC(=O)CNC(=O)[C@H](Cc1ccccc1)NC(=O)[C@H](CC(N)=O)NC(=O)[C@@H]1CCCN1C(=O)[C@H](CO)NC(=O)[C@H](CO)NC(=O)[C@H](Cc1c[nH]cn1)NC(=O)[C@H](CCCNC(=N)N)NC(=O)[C@H](CC(C)C)NC(=O)[C@H](Cc1ccccc1)NC(=O)[C@H](CO)NC(=O)[C@H](C)NC(=O)[C@H](CC(C)C)NC(=O)[C@H](CCCNC(=N)N)NC(=O)[C@H](CCC(N)=O)NC(=O)[C@@H](NC(=O)[C@H](C)NC(=O)[C@@H]1CSSC[C@H](NC(=O)[C@@H](N)CCCCNC(=O)COCCOCCNC(=O)CC[C@H](NC(=O)CCCCCCCCCCCCCCCCCCC(=O)O)C(=O)O)C(=O)N[C@@H](CC(N)=O)C(=O)N[C@@H]([C@@H](C)O)C(=O)N[C@@H](C)C(=O)N[C@@H]([C@@H](C)O)C(=O)N1)[C@@H](C)O)C(=O)N1CCC[C@H]1C(=O)N[C@@H](CO)C(=O)N[C@@H](CO)C(=O)N[C@H](C(=O)N1CCC[C@H]1C(=O)N[C@H](C(=O)NCC(=O)N[C@@H](CO)C(=O)N[C@@H](CC(N)=O)C(=O)N[C@H](C(=O)N[C@@H](Cc1ccc(O)cc1)C(N)=O)[C@@H](C)O)C(C)C)[C@@H](C)O [Example 73] (H-K([AEEA-γGlu-C20 diacid])CNTATCATQRLASFLRHSSPNFGAIPSSTPVGSNTY-NH2; disulfide 2-7 (inferred)),12
7,CC[C@H](C)[C@H](NC(=O)[C@H](C)NC(=O)CNC(=O)[C@H](Cc1ccccc1)NC(=O)[C@H](CC(N)=O)NC(=O)[C@@H]1CCCN1C(=O)[C@H](CO)NC(=O)[C@H](CO)NC(=O)[C@H](Cc1c[nH]cn1)NC(=O)[C@H](CCCNC(=N)N)NC(=O)[C@H](CC(C)C)NC(=O)[C@H](Cc1ccccc1)NC(=O)[C@H](Cc1c[nH]cn1)NC(=O)[C@H](C)NC(=O)[C@H](CC(C)C)NC(=O)[C@H](CCCNC(=N)N)NC(=O)[C@H](CCC(N)=O)NC(=O)[C@@H](NC(=O)[C@H](C)NC(=O)[C@@H]1CSSC[C@H](NC(=O)[C@H](CCCNC(=N)N)NC(=O)CNC(=O)CC[C@H](NC(=O)CCCCCCCCCCCCCCCCCCC(=O)O)C(=O)O)C(=O)N[C@@H](CC(N)=O)C(=O)N[C@@H]([C@@H](C)O)C(=O)N[C@@H](C)C(=O)N[C@@H]([C@@H](C)O)C(=O)N1)[C@@H](C)O)C(=O)N1CCC[C@H]1C(=O)N[C@@H](CO)C(=O)N[C@@H](CO)C(=O)N[C@H](C(=O)N[C@@H](CC(N)=O)C(=O)N[C@H](C(=O)NCC(=O)N[C@@H](Cc1c[nH]cn1)C(=O)N[C@@H](CC(N)=O)C(=O)N[C@H](C(=O)N[C@@H](Cc1ccc(O)cc1)C(N)=O)[C@@H](C)O)C(C)C)[C@@H](C)O [Example 100] ({C20 diacid-γGlu}-GRCNTATCATQRLAHFLRHSSPNFGAIPSSTNVGHNTY-NH2; disulfide 3-8 (inferred)),33
